Data on one compound can be found in ChEMBL document CHEMBL3046458, “Pyraclostrobin sensitivity of baseline and fungicide exposed isolates of Pyrenophora tritici-repentis” (Crop Prot, 2012).

The term EC50 denotes the concentration that produces a half-maximal response.

Format in all cases: functional, organism-based
The subject of experiment [1] is Pyrenophora tritici-repentis. The experiment in a line: Antifungal activity against Pyrenophora tritici-repentis isolate Ptr 92 148-1-1 assessed as inhibition of conidia germination after 6 hr incubation. The conditions noted are these: Ptr 92 148-1-1, 6 h.
Experiment [2] deals with Pyrenophora tritici-repentis. As to the kind of experiment: Antifungal activity against Pyrenophora tritici-repentis isolate Ptr 1A assessed as inhibition of conidia germination after 6 hr incubation in presence of SHAM.
In experiment [3] the test system is Pyrenophora tritici-repentis. The experiment in a line: Antifungal activity against Pyrenophora tritici-repentis isolate Ptr 1A assessed as inhibition of conidia germination after 6 hr incubation.
The test system of experiment [4] is Pyrenophora tritici-repentis. The experiment in a line: Antifungal activity against Pyrenophora tritici-repentis isolate Ptr 92 119-2-3 assessed as inhibition of conidia germination after 6 hr incubation. The conditions noted are these: Ptr 92 119-2-3, 6 h.
Experiment [5] relates to Pyrenophora tritici-repentis. The experiment in a line: Antifungal activity against Pyrenophora tritici-repentis isolate Ptr 86-4 assessed as inhibition of conidia germination after 6 hr incubation in presence of SHAM. The conditions noted are these: Ptr 86-4, 6 h.
In experiment [6] the test system is Pyrenophora tritici-repentis. As to the kind of experiment: Antifungal activity against Pyrenophora tritici-repentis isolate Ptr 92 115-2-3 assessed as inhibition of conidia germination after 6 hr incubation in presence of SHAM. As to conditions: Ptr 92 115-2-3, 6 h.
For experiment [7], the system named is Pyrenophora tritici-repentis. The experiment in a line: Antifungal activity against Pyrenophora tritici-repentis isolate Ptr 90 P7d assessed as inhibition of conidia germination after 6 hr incubation.
For experiment [8], the system named is Pyrenophora tritici-repentis. The experiment in a line: Antifungal activity against Pyrenophora tritici-repentis isolate Ptr 90 DL-22 assessed as inhibition of conidia germination after 6 hr incubation in presence of SHAM. As to conditions: Ptr 90 DL-22, 6 h.
The test system of experiment [9] is Pyrenophora tritici-repentis. As to the kind of experiment: Antifungal activity against Pyrenophora tritici-repentis isolate Ptr 90 DL-22 assessed as inhibition of conidia germination after 6 hr incubation. The conditions noted are these: Ptr 90 DL-22, 6 h.
The test system of experiment [10] is Pyrenophora tritici-repentis. As to the kind of experiment: Antifungal activity against Pyrenophora tritici-repentis isolate Ptr 86-4 assessed as inhibition of conidia germination after 6 hr incubation. As to conditions: Ptr 86-4, 6 h.
In experiment [11] the test system is Pyrenophora tritici-repentis. As to the kind of experiment: Antifungal activity against Pyrenophora tritici-repentis isolate Ptr 92 120-2-2 assessed as inhibition of conidia germination after 6 hr incubation. The conditions noted are these: Ptr 92 120-2-2, 6 h.
In experiment [12] the test system is Pyrenophora tritici-repentis. As to the kind of experiment: Antifungal activity against Pyrenophora tritici-repentis isolate Ptr 92 148-1-1 assessed as inhibition of conidia germination after 6 hr incubation in presence of SHAM. As to conditions: Ptr 92 148-1-1, 6 h.
Experiment [13] deals with Pyrenophora tritici-repentis. As to the kind of experiment: Antifungal activity against Pyrenophora tritici-repentis isolate Ptr 4b assessed as inhibition of conidia germination after 6 hr incubation in presence of SHAM.
Experiment [14] deals with Pyrenophora tritici-repentis. The experiment in a line: Antifungal activity against Pyrenophora tritici-repentis isolate Ptr 4b assessed as inhibition of conidia germination after 6 hr incubation.
Experiment [15] has as its system Pyrenophora tritici-repentis. The experiment in a line: Antifungal activity against Pyrenophora tritici-repentis isolate Ptr 92 119-2-3 assessed as inhibition of conidia germination after 6 hr incubation in presence of SHAM. As to conditions: Ptr 92 119-2-3, 6 h.
Experiment [16] has as its system Pyrenophora tritici-repentis. The experiment in a line: Antifungal activity against Pyrenophora tritici-repentis isolate Ptr 92 145-2-4 assessed as inhibition of conidia germination after 6 hr incubation in presence of SHAM. As to conditions: Ptr 92 145-2-4, 6 h.
The subject of experiment [17] is Pyrenophora tritici-repentis. As to the kind of experiment: Antifungal activity against Pyrenophora tritici-repentis isolate Ptr 92 145-2-4 assessed as inhibition of conidia germination after 6 hr incubation. The conditions noted are these: Ptr 92 145-2-4, 6 h.
In experiment [18] the test system is Pyrenophora tritici-repentis. The experiment in a line: Antifungal activity against Pyrenophora tritici-repentis isolate Ptr 92 120-2-2 assessed as inhibition of conidia germination after 6 hr incubation in presence of SHAM. The conditions noted are these: Ptr 92 120-2-2, 6 h.
Experiment [19] relates to Pyrenophora tritici-repentis. As to the kind of experiment: Antifungal activity against Pyrenophora tritici-repentis isolate Ptr 90 P7d assessed as inhibition of conidia germination after 6 hr incubation in presence of SHAM.
Experiment [20] deals with Pyrenophora tritici-repentis. As to the kind of experiment: Antifungal activity against Pyrenophora tritici-repentis isolate Ptr 92 115-2-3 assessed as inhibition of conidia germination after 6 hr incubation. As to conditions: Ptr 92 115-2-3, 6 h.

≈ marks a conversion by molar mass, not a printed value.

Consider `COC(=O)N(OC)c1ccccc1COc1ccn(-c2ccc(Cl)cc2)n1` [PYRACLOSTROBIN], for which the EC50 in experiment [1] is 5.1 ng/mL (≈ 0.0132 µM); in experiment [2], 2.2 ng/mL; in experiment [3], 9.9 ng/mL (≈ 0.0255 µM); in [4], 3.8 ng/mL (≈ 0.0098 µM); in [5], 1.6 ng/mL; in experiment [6] it was 2.3 ng/mL. In addition, the concentration giving a half-maximal response (EC50) is 3.3 ng/mL (≈ 0.00851 µM) in [7]; 1.6 ng/mL in [8]; 11.8 ng/mL (≈ 0.0304 µM) in [9]; 3.4 ng/mL (≈ 0.00877 µM) in experiment [10]; 8.1 ng/mL (≈ 0.0209 µM) in [11]; 2.3 ng/mL in [12]. The half-maximal effective concentration (EC50) in experiment [13] was found to be 1.6 ng/mL; in experiment [14], 3.8 ng/mL (≈ 0.0098 µM); in experiment [15], 2 ng/mL; in experiment [16] it was 1.5 ng/mL; in experiment [17] it was 3.8 ng/mL (≈ 0.0098 µM); in experiment [18], 2.1 ng/mL. Further, the EC50 in experiment [19] is 1.6 ng/mL; in experiment [20], 12.4 ng/mL (≈ 0.032 µM).
